# Data as given in patent US8796460B2, “Compounds for inhibiting KSP kinesin activity” (Mercky Sharp & Dohme Corp., priority 2007, dated 2014).
# Where two headings read alike, the source gives them in different places.
# Test system: HCT116 colon cancer cells
# Assay: KSP Cellular Assay (percent of cells staining positive for Phos-Histone H3 / Phos-MPM2)
# Type: cell-based
# Conditions: Homo sapiens, HCT-116, 16 h, HCT116 cells, 16 hours with drug
# Method in brief: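 HCT116 cells treated with compound for 16 hours, fixed and stained with Hoechst plus Phos-Histone H3 (ser10) and Phos-MPM2 antibodies. Percent positive cells from immunofluorescence imaging; EC50 by sigmoidal nonlinear regression over 8-point dilutions in duplicate.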
# [1] = Table 401, read-out: ED50 (nM) Range
Compound,EC50 [1],other results
N[C@H]1CC[C@@H](C(=O)N2N=C(c3cc(F)ccc3F)SC23CCOc2ccccc23)CC1 (stereo partly drawn) [compound 481],> 500 nM,
CCOC(=O)N1N=C(c2cc(F)ccc2F)S[C@]12c1ccccc1OC[C@@H]2CCN [compound 2104],,"EC50 (table of Example 2101, read-out: EC50 (nM) Range): ≤ 500 nM"
O=C(CC1CCCNC1)N1N=C(c2cc(F)ccc2F)SC12CCc1ccccc12 (stereo not drawn) [compound 446],500 to 1000 nM,
CO[C@@H](C)C(=O)N1N=C(c2cc(F)ccc2F)S[C@@]12c1cc(F)ccc1OC[C@H]2CCN [compound 1902],,"EC50 (table of Example 1901, read-out: EC50 (nM) Range): ≤ 500 nM"
CC(=O)N1N=C(c2cc(F)ccc2F)S[C@]12CCNc1ccccc12 [compound 2402],,"EC50 (table of Example 2401, read-out: EC50 (nM) Range): > 1000 nM"
O=C1CCCN1CCCC(=O)N1N=C(c2cc(F)ccc2F)SC12CCc1ccccc12 (stereo not drawn) [compound 455],500 to 1000 nM,
CC(=O)N1N=C(c2cc(F)ccc2F)SC12CCCCc1ccccc12 (stereo not drawn) [compound 122],,"EC50 (Table 101, read-out: ED50 (nM) Range): > 1000 nM"
CNCCCC(=O)N1N=C(c2cc(F)ccc2F)SC12CCc1ccccc12 (stereo not drawn) [compound 453],> 500 nM,
O=C(CCC1CCNCC1)N1N=C(c2cc(F)ccc2F)SC12CCOc1ccccc12 (stereo not drawn) [compound 498],≤ 500 nM,
